According to BindingDB's records for PubMed 22948716 (Children's Hospital of Philadelphia):

How the values were obtained:
[1] = Inhibition of CENP-E in human RKO cells expressing BRAF mutant assessed as decrease in cell viability after 72 hrs by Cell-titer Glo reagent assay
[2] = Inhibition of CENP-E in human SK-N-FI cells assessed as decrease in cell viability after 72 hrs by Cell-titer Glo reagent assay
[3] = Inhibition of CENP-E in human SK-N-FI cells assessed as decrease in cell viability after 72 hrs in presence of ERK1 siRNA by Cell-titer Glo reagent assay
[4] = Inhibition of CENP-E in human SW620 cells expressing KRAS mutant assessed as decrease in cell viability after 72 hrs by Cell-titer Glo reagent assay
[5] = Inhibition of CENP-E in human HCT-116 cells expressing KRAS mutant assessed as decrease in cell viability after 72 hrs by Cell-titer Glo reagent assay

`CC(C)Oc1ccc(C(=O)N[C@H](CNC(=O)CN(C)C)Cc2ccc(-c3cn4cccc([C@H](C)O)c4n3)cc2)cc1Cl` [Gsk-923295a] gave an IC50 [1] of 56 nM, an IC50 [2] of 283 nM and an IC50 [3] of 134 nM. It also gave an IC50 [4] of 42 nM and an IC50 [5] of 52 nM.
